Results reported in article PMC4833353 (PLoS Pathogens, 2016).
“And” between values parts separate entries of the source, which are not always exact repeats. Equal values may be shown once.

Tests used:
[1] = target: T1, ET CTB (Vibrio cholerae serotype O1, UniProt P01556); experiment: biochemical; format: binding; settings: for Kd: K D
[2] = target: T1, ET CTB; format: binding

T1 sequence (P01556 22-124 limits assumed): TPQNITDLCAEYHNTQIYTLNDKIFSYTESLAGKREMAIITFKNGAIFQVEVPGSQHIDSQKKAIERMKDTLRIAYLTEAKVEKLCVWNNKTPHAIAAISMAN

GalNAcα3[Fucα2]Galβ3[Fucα4]GlcNAc
binding to CTB [1]: very weak to no binding

CC(=O)N[C@H]1[C@@H](O[C@H]2[C@@H](O)[C@@H](CO)O[C@@H](O[C@H]3[C@H](O[C@@H]4O[C@@H](C)[C@@H](O)[C@@H](O)[C@@H]4O)[C@@H](O)[C@H](O)O[C@@H]3CO)[C@@H]2O[C@@H]2O[C@@H](C)[C@@H](O)[C@@H](O)[C@@H]2O)O[C@H](CO)[C@H](O)[C@@H]1O [A-penta-HMO, GalNAcα3[Fucα2]Galβ4[Fucα3]Glc]
Kd [1]: 4.6 mM and 4.57 mM
binding of ET CTB to GM1-coated wells after preincubation with ligand [2]: interfered with binding of CTB to GM1

CC(=O)N[C@@H]1[C@@H](O[C@@H]2O[C@@H](C)[C@@H](O)[C@@H](O)[C@@H]2O)[C@H](O[C@@H]2O[C@H](CO)[C@H](O)[C@H](O[C@H]3O[C@H](CO)[C@H](O)[C@H](O)[C@H]3NC(C)=O)[C@H]2O[C@@H]2O[C@@H](C)[C@@H](O)[C@@H](O)[C@@H]2O)[C@@H](CO)O[C@H]1O [A-penta-BGA, GalNAcα3[Fucα2]Galβ4[Fucα3]GlcNAc]
binding affinity (in words) [1]: binding very weakly
Kd [1]: > 30 mM
